Assay results as given in ChEMBL document CHEMBL1828586 (J Med Chem, 2011).

Assays:
Assay type in all cases: functional, cell-based
PPC-1 = experiment: Anticancer activity against human PPC1 cells after 96 hrs by SRB assay; details: PPC-1, 96 h
[1] = Anticancer activity against mouse B16-F1 cells after 96 hrs by SRB assay; details: B16-F1, 96 h
A-375 = experiment: Anticancer activity against human A375 cells after 96 hrs by SRB assay; details: A-375, 96 h
PC-3 = experiment: Anticancer activity against human PC3 cells after 96 hrs by SRB assay; details: PC-3, 96 h
LNCaP = experiment: Anticancer activity against human LNCAP cells after 96 hrs by SRB assay
DU-145 = experiment: Anticancer activity against human DU145 cells after 96 hrs by SRB assay; details: DU-145, 96 h

Structure (SMILES)	IC50 (A-375) [nM]	IC50 (PC-3) [nM]	IC50 (LNCaP) [nM]	IC50 (DU-145) [nM]	IC50 (PPC-1) [nM]	IC50 [1] [nM]
COc1cc(C(=O)[C@@H]2COC(c3ccccc3)=N2)cc(OC)c1OC	500				1100	6500
COc1cc(C(=O)N2CCC(c3ccccc3)CC2)cc(OC)c1OC	> 30000	> 20000	> 20000	> 20000	> 20000	> 30000
COc1cc(/C(=N\O)c2csc(-c3ccccc3)n2)cc(OC)c1OC	7800	> 10000	> 10000	> 10000	> 10000	11400
COc1cc(/C(=N/N)c2csc(-c3ccccc3)n2)cc(OC)c1OC	900	1120	1800	1210	872	2000
COc1cc(/C(=N\N)c2csc(-c3ccccc3)n2)cc(OC)c1OC	600	1040	1300		966	1800
COc1cc(C(O)c2csc(-c3ccccc3)n2)cc(OC)c1OC (configuration not stated)	> 30000	> 10000	> 10000	> 10000	> 10000	> 30000
COc1cc(C(=O)[C@@H]2CSC(c3ccc(O[Si](C)(C)C(C)(C)C)cc3)=N2)cc(OC)c1OC	700	183	549	434	246	500
COc1cc(C(=O)c2csc(-c3ccc(CNC(=O)OC(C)(C)C)cc3)n2)cc(OC)c1OC	7900	3100	2600	4300	2700	2900
CNCc1ccc(-c2nc(C(=O)c3cc(OC)c(OC)c(OC)c3)cs2)cc1	> 10000	> 10000	1140	10000	10000	> 10000
COc1cc(C(=O)c2csc(-c3ccc(CN(C)C)cc3)n2)cc(OC)c1OC	> 10000	> 10000	1020	> 10000	> 10000	> 10000
COc1cc(C(=O)c2csc(Nc3ccc(C)cc3)n2)cc(OC)c1OC		38	35	35	36	
COc1cc(NC(=O)c2csc(-c3ccccc3)n2)cc(OC)c1OC	> 30000	> 10000	> 10000	> 10000	> 10000	> 30000

The next lines start with results.

IC50 (A-375) [nM]	IC50 (PC-3) [nM]	IC50 (LNCaP) [nM]	IC50 (DU-145) [nM]	Structure (SMILES)	IC50 (PPC-1) [nM]	IC50 [1] [nM]
300	292	331	292	COc1cc(C(=O)c2coc(-c3ccccc3)n2)cc(OC)c1OC	343	600
87	124	52	171	COc1cc(C(=O)c2cccc(-c3ccccc3)c2)cc(OC)c1OC	80	500
> 30000	8300	7000	6900	COc1cc(C(=O)c2cc(-c3ccccc3)ncn2)cc(OC)c1OC	3700	> 30000
15	12		26	COc1cc(C(=O)c2csc(-c3ccccc3)c2)cc(OC)c1OC	15	72
13600	> 10000	> 10000	> 10000	COc1cc(C(=O)c2cnc(-c3ccccc3)s2)cc(OC)c1OC	> 10000	12500
> 30000	> 10000	> 10000	> 10000	COc1cc(C(=O)c2cc(-c3ccccc3)on2)cc(OC)c1OC	> 10000	> 30000
> 30000	> 10000	> 10000	> 10000	COc1cc(C(=O)Nc2csc(-c3ccccc3)n2)cc(OC)c1OC	> 10000	> 30000
